Measured values from patent US8703957B2 (Janssen Pharmaceutica NV, priority 2001, dated 2014).

Experiments:
[1] = target: T1, human neutrophil cathepsin G (Homo sapiens, UniProt P08311); experiment: Enzyme-catalyzed hydrolysis assay, cathepsin G (chromogenic substrate Suc-Ala-Ala-Pro-Phe-pNa); type: biochemical; conditions: 70 nM enzyme, 5 mM substrate, pH 7.4, 37° C., 30 minutes; read-out: IC50 (μM) CatG
T1 construct: human neutrophil cathepsin G (Athens Research and Technology); purchased Athens Research and Technology; host or cells: human neutrophils (from the enzyme's name)
T1 sequence (P08311 21-243 limits assumed): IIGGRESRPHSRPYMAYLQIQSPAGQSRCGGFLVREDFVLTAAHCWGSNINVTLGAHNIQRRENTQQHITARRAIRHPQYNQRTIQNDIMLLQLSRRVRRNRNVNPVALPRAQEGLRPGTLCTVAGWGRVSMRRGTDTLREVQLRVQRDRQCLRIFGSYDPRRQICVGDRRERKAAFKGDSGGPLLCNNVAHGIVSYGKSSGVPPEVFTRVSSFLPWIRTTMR
Method: (§1) Enzyme-catalyzed hydrolysis rates were measured spectrophotometrically using human neutrophil cathepsin G (Athens Research and Technology) or human skin chymase (Cortex Biochem), a chromogenic substrate (Suc-Ala-Ala-Pro-Phe-pNa) (Bachem) in aqueous buffer (100 mM Hepes, 500 mM NaCl, pH 7.4 for catG; 450 mM Tris, 1800 mM NaCl, pH 8.0 for chymase), and a microplate reader (Molecular Devices). […] Percent inhibition was calculated by comparing the initial reaction slopes of the samples without inhibitor to those with inhibitor. IC50 values were determined using a four parameter fit logistics model. The term “NT” indicates a compound that was not tested.

human skin chymase = target: T2, human skin chymase (Homo sapiens, UniProt P23946); experiment: Enzyme-catalyzed hydrolysis assay, chymase (chromogenic substrate Suc-Ala-Ala-Pro-Phe-pNa); type: biochemical; conditions: 10 nM enzyme, 0.7 mM substrate, pH 8.0, 37° C., 30 minutes
T2 construct: human skin chymase (Cortex Biochem); purchased Cortex Biochem; host or cells: human skin (from the enzyme's name)
T2 sequence (P23946 22-247): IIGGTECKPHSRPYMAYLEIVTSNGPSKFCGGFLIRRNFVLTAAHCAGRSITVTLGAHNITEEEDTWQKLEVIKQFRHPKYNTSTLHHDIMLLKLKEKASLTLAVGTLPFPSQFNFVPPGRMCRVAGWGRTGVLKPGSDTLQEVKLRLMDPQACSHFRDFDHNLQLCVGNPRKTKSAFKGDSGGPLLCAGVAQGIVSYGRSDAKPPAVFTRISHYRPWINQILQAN
Method: as §1

SMILES | IC50 [1] | IC50 (human skin chymase)
CN(C(=O)c1cc2ccccc2cc1C(=O)C(c1cccc2ccccc12)P(=O)(O)O)C1CCN(C(=O)c2ccc3cc(Br)ccc3c2)CC1 (stereo not drawn) [Compound 4] | 0.09 ± 0.02 µM | 0.0039 ± 0.0001 µM
O=C(c1cc2ccccc2cc1C(=O)N1CCC(c2ccccc2)CC1)C(c1cccc2ccccc12)P(=O)(O)O (stereo not drawn) [Compound 7, [1-(1-naphthalenyl)-2-oxo-2-[3-[(4-phenyl-1-piperidinyl)carbonyl]-2-naphthalenyl]ethyl]-phosphonic acid] | 0.21 ± 0.05 µM | 0.008 ± 0.022 µM
CN(C(=O)c1cc2ccccc2cc1C(=O)C(c1ccccc1)P(=O)(O)O)C1CCN(C(=O)c2ccc3ccccc3c2)CC1 (stereo not drawn) [Compound 11, [2-[3-[[methyl[1-(2-naphthalenylcarbonyl)-4-piperidinyl]amino]carbonyl]-2-naphthalenyl]-2-oxo-1-phenylethyl]-phosphonic acid] | 4.9 ± 2.8 µM | 0.032 µM
COc1ccc(C2CCN(C(=O)c3cc4ccccc4cc3C(=O)C(c3cccc4ccccc34)P(=O)(O)O)CC2)cc1 (stereo not drawn) [Compound 12, [2-[3-[[4-(4-methoxyphenyl)-1-piperidinyl]carbonyl]-2-naphthalenyl]-1-(1-naphthalenyl)-2-oxoethyl]-phosphonic acid] | 0.179 ± 0.038 µM | 0.0073 ± 0.0017 µM
COc1cccc(C2CCN(C(=O)c3cc4ccccc4cc3C(=O)C(c3cccc4ccccc34)P(=O)(O)O)CC2)c1 (stereo not drawn) [Compound 14, [2-[3-[[4-(3-methoxyphenyl)-1-piperidinyl]carbonyl]-2-naphthalenyl]-1-(1-naphthalenyl)-2-oxoethyl]-phosphonic acid] | 0.23 ± 0.03 µM | 0.01 ± 0.001 µM
CN(C(=O)c1cc2ccccc2cc1C(=O)C(c1cccc2ccccc12)P(=O)(O)O)C1CCN(C(=O)c2ccccc2)CC1 (stereo not drawn) [Compound 15] | – | 0.017 ± 0.005 µM
O=C(c1cc2ccccc2cc1C(=O)N1CCC(c2nc3ccccc3s2)CC1)C(c1cccc2ccccc12)P(=O)(O)O (stereo not drawn) [Compound 16, [2-[3-[[4-(2-benzothiazolyl)-1-piperidinyl]carbonyl]-2-naphthalenyl]-1-(1-naphthalenyl)-2-oxoethyl]-phosphonic acid] | 0.19 ± 0.02 µM | 0.0085 ± 0.0023 µM
O=C(c1cc2ccccc2cc1C(=O)N1CCC(c2ccccc2)C1)C(c1cccc2ccccc12)P(=O)(O)O (stereo not drawn) [Compound 19, [1-(1-naphthalenyl)-2-oxo-2-[3-[(3-phenyl-1-pyrrolidinyl)carbonyl]-2-naphthalenyl]ethyl]-phosphonic acid] | 0.238 ± 0.03 µM | 0.022 ± 0.062 µM
COP(=O)(O)C(C(=O)c1cc2ccccc2cc1C(=O)N(C)C1CCN(C(=O)c2ccc3ccccc3c2)CC1)c1cccc2ccccc12 (stereo not drawn) [Compound 23, [2[3-[[methyl[1-(2-naphthalenylcarbonyl)-4-piperidinyl]amino]carbonyl]-2-naphthalenyl]-1-(1-naphthalenyl)-2-oxoethyl]-phosphonic acid methyl ester] | 0.67 µM | 0.416 µM
O=C(c1cc2ccccc2cc1C(=O)N1CCC(CCc2ccccc2)C1)C(c1cccc2ccccc12)P(=O)(O)O (stereo not drawn) [Compound 25, [1-(1-naphthalenyl)-2-oxo-2-[3-[[3-(2-phenylethyl)-1-pyrrolidinyl]carbonyl]-2-naphthalenyl]ethyl]-phosphonic acid] | 0.156 ± 0.028 µM | 0.0097 ± 0.0035 µM
CN(CC12CC3CC(CC(C3)C1)C2)C(=O)c1cc2ccccc2cc1C(=O)C(c1cccc2ccccc12)P(=O)(O)O (stereo not drawn) [Compound 28, [2-[1-[[methyl(tricyclo[3.3.1^3,7]dec-1-ylmethyl)amino]carbonyl]-2-naphthalenyl]-1-(1-naphthalenyl)-2-oxoethyl]-phosphonic acid] | 0.4 ± 0.09 µM | 0.036 ± 0.011 µM
CN(C(=O)c1cc2ccccc2cc1C(=O)C(c1cccc2ccccc12)P(=O)(O)O)C1CC=C(c2ccccc2)CC1 (stereo not drawn) [Compound 29, [2-[3-[[methyl(4-phenyl-3-cyclohexen-1-yl)amino]-carbonyl]-2-naphthalenyl]-1-(1-naphthalenyl)-2-oxoethyl]-phosphonic acid] | 0.15 ± 0.03 µM | 0.0082 ± 0.0028 µM
O=C(c1cc2ccccc2cc1C(=O)N1CCN(S(=O)(=O)c2ccc3ccccc3c2)CC1)C(c1cccc2ccccc12)P(=O)(O)O (stereo not drawn) [Compound 35] | 0.56 ± 0.18 µM | –
O=C(c1cc2ccccc2cc1C(=O)N1CCN(C(=O)Cc2ccc3ccccc3c2)CC1)C(c1cccc2ccccc12)P(=O)(O)O (stereo not drawn) [Compound 37] | 0.74 ± 0.29 µM | –
O=C(c1cc2ccccc2cc1C(=O)N1CCN(C(=O)c2ccc3ccccc3c2)CC1)C(c1cccc2ccccc12)P(=O)(O)O (stereo not drawn) [Compound 38] | 0.78 ± 0.22 µM | –
COc1ccc(N2CCN(C(=O)c3cc4ccccc4cc3C(=O)C(c3cccc4ccccc34)P(=O)(O)O)CC2)cc1 (stereo not drawn) [Compound 40] | 0.17 ± 0.05 µM | –
O=C(NCc1ccc(S(=O)(=O)N2CCN(C(=O)c3cc4ccccc4cc3C(=O)C(c3cccc4ccccc34)P(=O)(O)O)CC2)s1)c1ccccc1 (stereo not drawn) [Compound 41] | 0.31 µM | –
O=C(c1cc2ccccc2cc1C(=O)N1CCN(S(=O)(=O)c2c(Cl)nc3sccn23)CC1)C(c1cccc2ccccc12)P(=O)(O)O (stereo not drawn) [Compound 42] | 0.14 ± 0.03 µM | –
O=C(c1cc2ccccc2cc1C(=O)N1CCN(C(=O)Nc2ccc3ccccc3c2)CC1)C(c1cccc2ccccc12)P(=O)(O)O (stereo not drawn) [Compound 43] | 0.95 ± 0.21 µM | –

More lines, now with the values ahead:

IC50 [1] | IC50 (human skin chymase) | SMILES
0.083 ± 0.014 µM | 0.0053 ± 0.0019 µM | CN(C(=O)c1cc2ccccc2cc1C(=O)C(c1cccc2ccccc12)P(=O)(O)O)C1CCC(c2ccccc2)CC1 (stereo not drawn) [Compound 1, [2-[3-[[methyl(4-phenylcyclohexyl)amino]carbonyl]-2-naphthalenyl]-1-(1-naphthalenyl)-2-oxoethyl]-phosphonic acid]
0.067 ± 0.014 µM | 0.0035 ± 0.0015 µM | CN(C(=O)c1cc2ccccc2cc1C(=O)C(c1cccc2ccccc12)P(=O)(O)O)C1CCN(C(=O)/C=C/c2ccccc2)CC1 (stereo not drawn) [Compound 6, [2-[3-[[methyl[1-[(2E)-1-oxo-3-phenyl-2-propenyl]-4-piperidinyl]amino]carbonyl]-2-naphthalenyl]-1-(1-naphthalenyl)-2-oxoethyl]-phosphonic acid]
0.13 ± 0.01 µM | 0.0074 ± 0.0022 µM | O=C(c1cc2ccccc2cc1C(=O)N1CCC2(CC1)C(=O)NCN2c1ccccc1)C(c1cccc2ccccc12)P(=O)(O)O (stereo not drawn) [Compound 8, [1-(1-naphthalenyl)-2-oxo-2-[3-[(4-oxo-1-phenyl-1,3,8-triazaspiro[4.5]dec-8-yl)carbonyl]-2-naphthalenyl]ethyl]-phosphonic acid]
0.053 ± 0.015 µM | 0.011 ± 0.003 µM | Cc1ccc(/C=C/C(=O)N2CCC(N(C)C(=O)c3cc4ccccc4cc3C(=O)C(c3cccc4ccccc34)P(=O)(O)O)CC2)cc1 (stereo not drawn) [Compound 9, [2-[3-[[methyl[1-[(2E)-3-(4-methylphenyl)-1-oxo-2-propenyl]-4-piperidinyl]amino]carbonyl]-2-naphthalenyl]-1-(1-naphthalenyl)-2-oxoethyl]-phosphonic acid]
0.053 ± 0.016 µM | 0.014 ± 0.006 µM | CN(C(=O)c1cc2ccccc2cc1C(=O)C(c1cccc2ccccc12)P(=O)(O)O)C1CCN(C(=O)/C=C/c2ccc(C(F)(F)F)cc2)CC1 (stereo not drawn) [Compound 10, [2[3-[[methyl[1-[(2E)-1-oxo-3-[4-(trifluoromethyl)-phenyl]-2-propenyl]-4-piperidinyl]amino]carbonyl]-2-naphthalenyl]-1-(1-naphthalenyl)-2-oxoethyl]-phosphonic acid]
0.064 ± 0.008 µM | 0.004 µM | CN(C)c1ccc(C=CC(=O)N2CCC(N(C)C(=O)c3cc4ccccc4cc3C(=O)C(c3cccc4ccccc34)P(=O)(O)O)CC2)cc1 (stereo not drawn) [Compound 13, [2-3-[[[1-[(2E)-3-[4-(dimethylamino)phenyl]-1-oxo-2-propenyl]-4-piperidinyl]methylamino]carbonyl]-2-naphthalenyl]-1-(1-naphthalenyl)-2-oxoethyl]-phosphonic acid]
0.028 ± 0.006 µM | 0.001 µM | CN(C(=O)c1cc2ccccc2cc1C(=O)C(c1cccc2ccccc12)P(=O)(O)O)C1CCN(C(=O)CCc2ccc(C(F)(F)F)cc2)CC1 (stereo not drawn) [Compound 18, [2-[3-[[methyl[1-[1-oxo-3-[4-(trifluoromethyl)phenyl]-propyl]-4-piperidinyl]amino]carbonyl]-2-naphthalenyl]-1-(1-naphthalenyl)-2-oxoethyl]-phosphonic acid]
0.09 ± 0.023 µM | 0.004 ± 0.002 µM | CC(C)C(=O)N1CCC(N(C)C(=O)c2cc3ccccc3cc2C(=O)C(c2cccc3ccccc23)P(=O)(O)O)CC1 (stereo not drawn) [Compound 20, [2-[3-[[methyl[1-(2-methyl-1-oxopropyl)-4-piperidinyl]amino]carbonyl]-2-naphthalenyl]-1-(1-naphthalenyl)-2-oxoethyl]-phosphonic acid]
0.07 ± 0.01 µM | 0.0051 ± 0.0022 µM | CC1CCC(N(C)C(=O)c2cc3ccccc3cc2C(=O)C(c2cccc3ccccc23)P(=O)(O)O)CC1 (stereo not drawn) [Compound 27, [2-[3-[[methyl(4-methylcyclohexyl)amino]carbonyl]-2-naphthalenyl]-1-(1-naphthalenyl)-2-oxoethyl]-phosphonic acid]
